Entries after “also recorded” stand apart in the source; their conditions may differ.

In experiment [1] the test system is hHO-1 transfected primary rat astroglial cultures. The experiment in a line: Protein carbonyl assay (ELISA) in hHO-1 transfected rat astroglia, whole-cell and mitochondrial fractions. It counts as cell-based. The following applies: whole cell and mitochondrial compartments; for oxidative protein damage (protein carbonyls) accruing from hHO-1 transfection: 6.5 μM; for dose dependence of attenuation of oxidative protein damage: transiently transfected rat astroglia, hydrochloride. As for the experimental part: Cells were grown in Ham's F12 and high glucose DMEM (50:50 v/v) supplemented with 10 mM HEPES, 5% heat-inactivated horse serum, 5% heat-inactivated fetal bovine serum, and penicillin-streptomycin (50 U/mL and 50 μg/mL, respectively).
(§1) Upon reaching >90% confluence, 1×10^6 cells were transiently transfected with 4.0 μg of plasmid DNA-Lipofectamine 2000 complex using Lipofectamine 2000 method according to manufacturer instructions (Invitrogen). […] 12 μg of plasmid DNA and 16 μl of Lipofectamine 2000 reagent were diluted in 1.5 mL opti-MEM I reduced serum medium and incubated for 5 minutes at room temperature with gentle mixing. The two solutions were combined, incubated at room temperature for 20 minutes to promote formation of DNA-lipid complexes and administered to the cells. 2 mL opti-MEM I reduced serum medium was added to the flasks to ensure coverage of the monolayer by the transfection mixture. Following incubation for 6 hours at 37° C., the transfection mixture was replaced with 10 mL of complete media without antibiotics.
The cells were sonicated (Sonics & Materials, Danbury, Conn.) at a power level of 50 for 3×20 s in a cooled water bath. […] Whole-cell and mitochondrial preparations were assayed for protein carbonyls as described below.
Protein carbonyls were reacted with 2,4-dinitrophenylhydrazine (DNP) and the hydrazone adducts were detected with anti-DNP antisera. Quantification was achieved by comparison with oxidized BSA standards. Oxidized (carbonylated) BSA was prepared by reacting natural BSA (at 50 mg/mL in PBS) with hypochlorous acid (5 mM) for 1 h at 37° C., followed by overnight dialysis against PBS at 4° C. […] The pellet was resuspended in 2 mL of same buffer, sonicated on ice 2×15 s at 20 W and centrifuged for 20 min at 4° C. at 1,303×g. Protein concentration of supernatant was measured with the RC DC protein assay based on the Lowry protocol (Bio-Rad Laboratories, Hercules, Calif.). All samples were adjusted to 4.0 mg protein/mL. […] Five microliters aliquots of each reaction mixture were mixed with 1 mL PBS and 200 μL replicates were added per well to 96-well immunoplates and incubated overnight at 4° C. After washing with PBS, nonspecific binding sites were blocked with 0.1% Tween 20 in PBS. […] A 6-point standard curve of reduced and oxidized BSA was generated for each plate analyzed. Specific absorbance for each sample was calculated by subtracting basal absorbance of the DNP reagent from the total absorbance.
(In general: In an ELISA, binding on a coated surface is turned into a signal by an enzyme label.)

Experiment [2] has as its target T1, heme oxygenase activity in hHO-1-transfected astrocytes (Homo sapiens, UniProt P09601).
T1 construct: containing the entire protein-coding region (866 bp) of the human HO-1 gene; expressed in transfected cells; host or cells: primary rat astrocytes (also rat C6 glioma and human pancreatic tumor cells), transient transfection with Lipofectamine 2000
T1 sequence (P09601 1-288): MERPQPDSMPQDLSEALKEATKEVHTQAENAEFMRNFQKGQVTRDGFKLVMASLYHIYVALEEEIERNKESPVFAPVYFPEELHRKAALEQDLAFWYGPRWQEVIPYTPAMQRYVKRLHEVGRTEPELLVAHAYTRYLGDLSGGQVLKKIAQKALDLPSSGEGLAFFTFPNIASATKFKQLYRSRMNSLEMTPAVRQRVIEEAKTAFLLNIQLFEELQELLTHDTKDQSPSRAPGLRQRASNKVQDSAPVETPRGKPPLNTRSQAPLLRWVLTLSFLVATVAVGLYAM
The experiment in a line: In vitro HO enzyme activity (bilirubin formation) in hHO-1 transfected cells. The format is cell-based. The following applies: 6.5 μM, 18 h; hydrochloride. The method, then:
as §1
Cytosol extracts were prepared for HO activity measurement by the method of Ryter (Ryter, Kvam, Tyrrell 2000). […] Protein concentration of supernatant was measured with Bradford method. […] HO activity was calculated as nanomoles bilirubin per miligram protein per min, assuming an extinction coefficient of 40/mM/cm in chloroform (see FIG. 8).

In another experiment the test system is flag-tagged HO-1 protein. The experiment in a line: Western blot of flag-tagged HO-1 protein in transfected cells. The format is cell-based, human. The following applies: 6.5 μM, transiently transfected cells. The method, then:
Cells were rinsed twice with cold PBS (pH 7.4) and scraped in iced lysis buffer consisting of 1% Nonidet P-40, 50 mM Tris.HCl (pH 7.4), 30 mM NaCl, 25 mM β-glycerophosphate, 10 mM EDTA, 10 mM EGTA, 1 mM MgCl2, and protease inhibitors (10 mM sodium fluoride, 50 μg/mL AEBBSF, 5 μg/mL leupeptin, 5 μg/mL pepstatin, 5 μg/mL aprotinin). Supernatants were obtained by centrifugation at 15,000 rpm for 15 min at 4° C. Protein contents were determined using the Bradford method. Twenty μg aliquots plus 6×SDS-PAGE loading buffer (300 mM Tris.HCl pH 6.8, 600 mM DTT, 12% SDS, 0.6% bromophenol blue, 60% glycerol) were subjected to 10% sodium dodecyl sulfate-polyacrylamide gel electrophoresis and transferred to the polyvinylidene fluoride membranes. Nonspecific binding was blocked by incubation in Tris buffer saline (pH 7.4) containing 3% nonfat milk and 0.1% Tween 20 for 1 h at room temperature. Blots were probed with mouse anti-FLAG monoclonal antibody (1:200 diluted) and anti-β-actin monoclonal antibody (1:500 diluted). The secondary antibody consisted of horseradish peroxidase-conjugated goat anti-mouse antibody (1:4000 dilution). Protein bands were visualized by enhanced chemiluminescence using ECL western blotting reagents.

Turning to `Cl.FC[C@@H]1CO[C@@](CCc2ccc(Cl)cc2)(Cn2ccnc2)O1` [QC-47, (2R,4S)-1-{2-[2-(4-Chlorophenyl)ethyl]-4-fluoromethyl-[1,3]dioxolan-2-ylmethyl}-1H-imidazole hydrochloride], in experiment [1], the “oxidative protein damage (protein carbonyls) accruing from hHO-1 transfection” value is on record as “significantly attenuated oxidative protein damage” and the “dose dependence of attenuation of oxidative protein damage” value is on record as “significant dose dependant attenuations of oxidative protein damage; also recorded: in a dose dependent manner significantly decreased the amount of oxidative damage”. In experiment [2], the “heme oxygenase activity in hHO-1 transfected cells” value is “suppressed to levels akin to those of non-transfected and sham-transfected controls; also recorded: significantly attenuated heme oxygenase activity; also recorded: significantly decreased the activity of heme oxygenase-1”. In addition, in the experiment with flag-tagged HO-1 protein, the “expression level of flag-tagged HO-1 protein” value is reported as “without affecting the expression level”.
With `Brc1ccc(CCC2(Cn3ccnc3)OCCO2)cc1.Cl` [QC-56, 1-((2-(2-(4-Bromophenyl)ethyl)-1,3-dioxolan-2-yl)methyl)-1H-imidazole hydrochloride], in experiment [1], the “oxidative protein damage (protein carbonyls) accruing from hHO-1 transfection” value is listed as “significantly attenuated oxidative protein damage” and the “dose dependence of attenuation of oxidative protein damage” value is on record as “significant dose dependant attenuations of oxidative protein damage; also recorded: in a dose dependent manner significantly decreased the amount of oxidative damage; also recorded: significant dose-dependant attenuations of oxidative protein damage”. The “heme oxygenase activity in hHO-1 transfected cells” value in experiment [2] was “suppressed to levels akin to those of non-transfected and sham-transfected controls; also recorded: significantly attenuated heme oxygenase activity; also recorded: significantly decreased the activity of heme oxygenase-1”. Moreover, the “expression level of flag-tagged HO-1 protein” value in the experiment on flag-tagged HO-1 protein is “without affecting the expression level”.
